According to ChEMBL document CHEMBL3046801, “Synthesis of 2-R1-2-(4-(2-fluoroethoxy)benzamido)acetate as potential PET imaging agents” (Med Chem Res, 2012):

Columns and labels:
Brain [1] = assay: Biodistribution in tumor bearing Mus musculus KM (mouse) brain at 60 min by microPET imaging analysis; type: ADME, organism-based; conditions: in vivo, 1 h
Heart [2] = assay: Biodistribution in tumor bearing Mus musculus KM (mouse) heart at 120 min by microPET imaging analysis; type: ADME, organism-based; conditions: in vivo, 2 h
Brain [3] = assay: Biodistribution in tumor bearing Mus musculus KM (mouse) brain at 30 min by microPET imaging analysis; type: ADME, organism-based; conditions: in vivo, 0.5 h
Kidney [4] = assay: Biodistribution in tumor bearing Mus musculus KM (mouse) kidney at 60 min by microPET imaging analysis; type: ADME, organism-based; conditions: in vivo, 1 h
Kidney [5] = assay: Biodistribution in tumor bearing Mus musculus KM (mouse) kidney at 120 min by microPET imaging analysis; type: ADME, organism-based; conditions: in vivo, 2 h
Spleen [6] = assay: Biodistribution in tumor bearing Mus musculus KM (mouse) spleen at 5 min by microPET imaging analysis; type: ADME, organism-based; conditions: in vivo
Heart [7] = assay: Biodistribution in tumor bearing Mus musculus KM (mouse) heart by microPET imaging analysis; type: ADME, organism-based; conditions: in vivo, TDE = time-dependent effect
Muscle tissue [8] = assay: Biodistribution in tumor bearing Mus musculus KM (mouse) muscle at 30 min by microPET imaging analysis; type: ADME, organism-based; conditions: in vivo, 0.5 h
Lung [9] = assay: Biodistribution in tumor bearing Mus musculus KM (mouse) lung by microPET imaging analysis; type: ADME, organism-based; conditions: in vivo, TDE = time-dependent effect
Tumour [10] = assay: Biodistribution in Mus musculus KM (mouse) tumor at 60 min by microPET imaging analysis; type: ADME, organism-based, Neoplasm; conditions: in vivo, 1 h
Blood [11] = assay: Biodistribution in tumor bearing Mus musculus KM (mouse) blood at 15 min by microPET imaging analysis; type: ADME, organism-based; conditions: in vivo, 0.25 h
Spleen [12] = assay: Biodistribution in tumor bearing Mus musculus KM (mouse) spleen by microPET imaging analysis; type: ADME, organism-based; conditions: in vivo, TDE = time-dependent effect
Nucleic Acid [13] = assay: Ratio of drug uptake in tumor to muscle in Mus musculus KM (mouse) at 30 min; type: ADME, nucleic-acid assay; conditions: in vivo, 0.5 h
Lung [14] = assay: Biodistribution in tumor bearing Mus musculus KM (mouse) Lung at 60 min by microPET imaging analysis; type: ADME, organism-based; conditions: in vivo, 1 h
Blood [15] = assay: Biodistribution in tumor bearing Mus musculus KM (mouse) blood at 5 min by microPET imaging analysis; type: ADME, organism-based; conditions: in vivo
Blood [16] = assay: Biodistribution in tumor bearing Mus musculus KM (mouse) blood at 120 min by microPET imaging analysis; type: ADME, organism-based; conditions: in vivo, 2 h
Kidney [17] = assay: Biodistribution in tumor bearing Mus musculus KM (mouse) kidney at 5 min by microPET imaging analysis; type: ADME, organism-based; conditions: in vivo
Lung [18] = assay: Biodistribution in tumor bearing Mus musculus KM (mouse) Lung at 5 min by microPET imaging analysis; type: ADME, organism-based; conditions: in vivo
Blood [19] = assay: Biodistribution in tumor bearing Mus musculus KM (mouse) blood at 30 min by microPET imaging analysis; type: ADME, organism-based; conditions: in vivo, 0.5 h
Tumour [20] = assay: Biodistribution in Mus musculus KM (mouse) tumor at 15 min by microPET imaging analysis; type: ADME, organism-based, Neoplasm; conditions: in vivo, 0.25 h
Lung [21] = assay: Biodistribution in tumor bearing Mus musculus KM (mouse) Lung at 120 min by microPET imaging analysis; type: ADME, organism-based; conditions: in vivo, 2 h
Kidney [22] = assay: Biodistribution in tumor bearing Mus musculus KM (mouse) kidney at 15 min by microPET imaging analysis; type: ADME, organism-based; conditions: in vivo, 0.25 h
Muscle tissue [23] = assay: Biodistribution in tumor bearing Mus musculus KM (mouse) muscle at 15 min by microPET imaging analysis; type: ADME, organism-based; conditions: in vivo, 0.25 h
Heart [24] = assay: Biodistribution in tumor bearing Mus musculus KM (mouse) heart at 5 min by microPET imaging analysis; type: ADME, organism-based; conditions: in vivo
Heart [25] = assay: Biodistribution in tumor bearing Mus musculus KM (mouse) heart at 15 min by microPET imaging analysis; type: ADME, organism-based; conditions: in vivo, 0.25 h
Brain [26] = assay: Biodistribution in tumor bearing Mus musculus KM (mouse) brain at 5 min by microPET imaging analysis; type: ADME, organism-based; conditions: in vivo
Liver [27] = assay: Biodistribution in tumor bearing Mus musculus KM (mouse) liver at 5 min by microPET imaging analysis; type: ADME, organism-based; conditions: in vivo
Nucleic Acid [28] = assay: Ratio of drug uptake in tumor to muscle in Mus musculus KM (mouse) at 120 min; type: ADME; conditions: in vivo, 2 h
Tumour [29] = assay: Biodistribution in tumor of Mus musculus KM (mouse) by microPET imaging analysis; type: ADME, organism-based, Neoplasm; conditions: in vivo, TDE = time-dependent effect
Muscle tissue [30] = assay: Biodistribution in tumor bearing Mus musculus KM (mouse) muscle at 120 min by microPET imaging analysis; type: ADME, organism-based; conditions: in vivo, 2 h
Spleen [31] = assay: Biodistribution in tumor bearing Mus musculus KM (mouse) spleen at 30 min by microPET imaging analysis; type: ADME, organism-based; conditions: in vivo, 0.5 h
Brain [32] = assay: Biodistribution in tumor bearing Mus musculus KM (mouse) brain by microPET imaging analysis; type: ADME, organism-based; conditions: in vivo, TDE = time-dependent effect
Heart [33] = assay: Biodistribution in tumor bearing Mus musculus KM (mouse) heart at 30 min by microPET imaging analysis; type: ADME, organism-based; conditions: in vivo, 0.5 h
Liver [34] = assay: Biodistribution in tumor bearing Mus musculus KM (mouse) liver at 15 min by microPET imaging analysis; type: ADME, organism-based; conditions: in vivo, 0.25 h
[35] = Octanol-PBS partition coefficient of the compound at pH 7.4 by gamma counter; type: physicochemical; conditions: read-out: log KOW
Blood [36] = assay: Biodistribution in tumor bearing Mus musculus KM (mouse) blood at 60 min by microPET imaging analysis; type: ADME, organism-based; conditions: in vivo, 1 h
Nucleic Acid [37] = assay: Ratio of drug uptake in tumor to muscle in Mus musculus KM (mouse) at 60 min; type: ADME, nucleic-acid assay; conditions: in vivo, 1 h
Spleen [38] = assay: Biodistribution in tumor bearing Mus musculus KM (mouse) spleen at 60 min by microPET imaging analysis; type: ADME, organism-based; conditions: in vivo, 1 h
Tumour [39] = assay: Biodistribution in Mus musculus KM (mouse) tumor at 120 min by microPET imaging analysis; type: ADME, organism-based, Neoplasm; conditions: in vivo, 2 h
Nucleic Acid [40] = assay: Ratio of drug uptake in tumor to muscle in Mus musculus KM (mouse) at 15 min; type: ADME, nucleic-acid assay; conditions: in vivo, 0.25 h
Liver [41] = assay: Biodistribution in tumor bearing Mus musculus KM (mouse) liver at 60 min by microPET imaging analysis; type: ADME, organism-based; conditions: in vivo, 1 h
Tumour [42] = assay: Biodistribution in Mus musculus KM (mouse) tumor at 5 min by microPET imaging analysis; type: ADME, organism-based, Neoplasm; conditions: in vivo
Muscle tissue [43] = assay: Biodistribution in tumor bearing Mus musculus KM (mouse) muscle at 60 min by microPET imaging analysis; type: ADME, organism-based; conditions: in vivo, 1 h
Spleen [44] = assay: Biodistribution in tumor bearing Mus musculus KM (mouse) spleen at 15 min by microPET imaging analysis; type: ADME, organism-based; conditions: in vivo, 0.25 h
Liver [45] = assay: Biodistribution in tumor bearing Mus musculus KM (mouse) liver at 120 min by microPET imaging analysis; type: ADME, organism-based; conditions: in vivo, 2 h
Spleen [46] = assay: Biodistribution in tumor bearing Mus musculus KM (mouse) spleen at 120 min by microPET imaging analysis; type: ADME, organism-based; conditions: in vivo, 2 h
Liver [47] = assay: Biodistribution in tumor bearing Mus musculus KM (mouse) liver by microPET imaging analysis; type: ADME, organism-based; conditions: in vivo, TDE = time-dependent effect
Heart [48] = assay: Biodistribution in tumor bearing Mus musculus KM (mouse) heart at 60 min by microPET imaging analysis; type: ADME, organism-based; conditions: in vivo, 1 h
Brain [49] = assay: Biodistribution in tumor bearing Mus musculus KM (mouse) brain at 120 min by microPET imaging analysis; type: ADME, organism-based; conditions: in vivo, 2 h
Lung [50] = assay: Biodistribution in tumor bearing Mus musculus KM (mouse) Lung at 15 min by microPET imaging analysis; type: ADME, organism-based; conditions: in vivo, 0.25 h
Muscle tissue [51] = assay: Biodistribution in tumor bearing Mus musculus KM (mouse) muscle at 5 min by microPET imaging analysis; type: ADME, organism-based; conditions: in vivo
Blood [52] = assay: Biodistribution in tumor bearing Mus musculus KM (mouse) blood by microPET imaging analysis; type: ADME, organism-based; conditions: in vivo, TDE = time-dependent effect
Muscle tissue [53] = assay: Biodistribution in tumor bearing Mus musculus KM (mouse) muscle by microPET imaging analysis; type: ADME, organism-based; conditions: in vivo, TDE = time-dependent effect
Lung [54] = assay: Biodistribution in tumor bearing Mus musculus KM (mouse) Lung at 30 min by microPET imaging analysis; type: ADME, organism-based; conditions: in vivo, 0.5 h
Kidney [55] = assay: Biodistribution in tumor bearing Mus musculus KM (mouse) kidney by microPET imaging analysis; type: ADME, organism-based; conditions: in vivo, TDE = time-dependent effect
Liver [56] = assay: Biodistribution in tumor bearing Mus musculus KM (mouse) liver at 30 min by microPET imaging analysis; type: ADME, organism-based; conditions: in vivo, 0.5 h
Brain [57] = assay: Biodistribution in tumor bearing Mus musculus KM (mouse) brain at 15 min by microPET imaging analysis; type: ADME, organism-based; conditions: in vivo, 0.25 h
Kidney [58] = assay: Biodistribution in tumor bearing Mus musculus KM (mouse) kidney at 30 min by microPET imaging analysis; type: ADME, organism-based; conditions: in vivo, 0.5 h
Tumour [59] = assay: Biodistribution in Mus musculus KM (mouse) tumor at 30 min by microPET imaging analysis; type: ADME, organism-based, Neoplasm; conditions: in vivo, 0.5 h

O=C(O)CNC(=O)c1ccc(OCC[18F])cc1 [[18F]FEBA hydrolytic acid]
Drug uptake (Brain [1]): 0.06 % ID/g | Drug uptake (Heart [2]): 0.25 % ID/g | Drug uptake (Brain [3]): 0.12 % ID/g | Drug uptake (Kidney [4]): 0.46 % ID/g | Drug uptake (Kidney [5]): 0.32 % ID/g | Drug uptake (Spleen [6]): 1.12 % ID/g | Drug uptake (Heart [7]): tde | Drug uptake (Muscle tissue [8]): 0.47 % ID/g | Drug uptake (Lung [9]): tde | Drug uptake (Tumour [10]): 0.29 % ID/g | Drug uptake (Blood [11]): 1.45 % ID/g | Drug uptake (Spleen [12]): tde | Ratio (Nucleic Acid [13]): 0.99 | Drug uptake (Lung [14]): 0.18 % ID/g | Drug uptake (Blood [15]): 4.57 % ID/g | Drug uptake (Blood [16]): 0.3 % ID/g | Drug uptake (Kidney [17]): 17.9 % ID/g | Drug uptake (Lung [18]): 3.37 % ID/g | Drug uptake (Blood [19]): 0.39 % ID/g | Drug uptake (Tumour [20]): 0.89 % ID/g | Drug uptake (Lung [21]): 0.2 % ID/g | Drug uptake (Kidney [22]): 5.15 % ID/g | Drug uptake (Muscle tissue [23]): 0.82 % ID/g | Drug uptake (Heart [24]): 2.24 % ID/g | Drug uptake (Heart [25]): 0.75 % ID/g | Drug uptake (Brain [26]): 0.34 % ID/g | Drug uptake (Liver [27]): 2.75 % ID/g | Ratio (Nucleic Acid [28]): 2.57 | Drug uptake (Tumour [29]): tde | Drug uptake (Muscle tissue [30]): 0.14 % ID/g | Drug uptake (Spleen [31]): 0.22 % ID/g | Drug uptake (Brain [32]): tde | Drug uptake (Heart [33]): 0.28 % ID/g | Drug uptake (Liver [34]): 1.08 % ID/g | logD [35]: -1.55 | Drug uptake (Blood [36]): 0.18 % ID/g | Ratio (Nucleic Acid [37]): 1.93 | Drug uptake (Spleen [38]): 0.21 % ID/g | Drug uptake (Tumour [39]): 0.36 % ID/g | Ratio (Nucleic Acid [40]): 1.09 | Drug uptake (Liver [41]): 0.25 % ID/g | Drug uptake (Tumour [42]): 1.72 % ID/g | Drug uptake (Muscle tissue [43]): 0.15 % ID/g | Drug uptake (Spleen [44]): 0.48 % ID/g | Drug uptake (Liver [45]): 0.37 % ID/g | Drug uptake (Spleen [46]): 0.2 % ID/g | Drug uptake (Liver [47]): tde | Drug uptake (Heart [48]): 0.22 % ID/g | Drug uptake (Brain [49]): 0.13 % ID/g | Drug uptake (Lung [50]): 1.11 % ID/g | Drug uptake (Muscle tissue [51]): 1.35 % ID/g | Drug uptake (Blood [52]): tde | Drug uptake (Muscle tissue [53]): tde | Drug uptake (Lung [54]): 0.37 % ID/g | Drug uptake (Kidney [55]): tde | Drug uptake (Liver [56]): 0.38 % ID/g | Drug uptake (Brain [57]): 0.23 % ID/g | Drug uptake (Kidney [58]): 1.17 % ID/g | Drug uptake (Tumour [59]): 0.47 % ID/g
